Experimental findings from ChEMBL document CHEMBL1201862, “PubChem BioAssay data set” (2004) are described below.

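Cultured in 96-well plates, cells were exposed to test compound for 48 hours across five concentrations. The concentration for 50% growth inhibition is given as GI50.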 The source made the active and inactive calls. Cut-off read from the data, not from the text of the source: active = GI50 up to about 1.1 µM and inactive = higher.

Some test systems named below: SNB-19; KM-20L2; SW-620; UACC-257; K562; NCI-H522; CCRF-CEM; M14; A498; NCI-H226; HOP-62; HL-60; SK-OV-3; ACHN; HCC 2998; KM12; OVCAR-4.
What all share (assay): NCI tumour cell line growth inhibition, 48 h

Take `O=C(Nc1ccccc1C(=O)O)C(=O)C(C(=O)c1ccccc1-c1ccccc1)C1OC(=O)c2ccccc21` (stereo unspecified): the GI50 is 16.1 µM (inactive) in the assay on SNB-19; 22 µM (inactive) with KM-20L2; 27.3 µM (inactive) in the assay on SW-620; 16.7 µM (inactive) with UACC-257; 36.1 µM (inactive) with K562; 16.2 µM (inactive) in the assay with NCI-H522. The GI50 in the assay on CCRF-CEM is 22.1 µM (inactive); in the assay on M14, 17.1 µM (inactive); in the assay on A498, 19.3 µM (inactive); with NCI-H226 it was 12.5 µM (inactive); in the assay on HOP-62 it was 18 µM (inactive); in the assay with HL-60, 23.9 µM (inactive). Besides, the GI50 was 30.9 µM (inactive) in the assay with SK-OV-3; 34 µM (inactive) in the assay with ACHN; 16.5 µM (inactive) in the assay on HCC 2998; 18 µM (inactive) in the assay on KM12; 35 µM (inactive) in the assay with OVCAR-4.

Turning to `CC(N)Cc1ccc(C(=O)Cl)cc1` (stereo unspecified), the GI50 in the assay on KM-20L2, with SW-620, in the assay with UACC-257, in the assay on K562, in the assay on NCI-H522 and in the assay with CCRF-CEM was > 100 µM (inactive) throughout. Further, the GI50 with M14, in the assay with A498, with HOP-62, with SK-OV-3, with ACHN and in the assay with HCC 2998 was > 100 µM (inactive) throughout. The GI50 in the assay on KM12 and with OVCAR-4 was > 100 µM (inactive) each time.

As to `COc1ccc(C(=O)C(C(=O)C(=O)Nc2nc3ccc(OC)cc3s2)c2ccc(OC)cc2)cc1` (stereo unspecified), the GI50 in the assay on SNB-19 was > 100 µM (inactive); with KM-20L2, > 100 µM (inactive); with SW-620 it was > 100 µM (inactive); in the assay on UACC-257 it was 63.2 µM (inactive); in the assay on K562, > 100 µM (inactive); in the assay on CCRF-CEM, > 100 µM (inactive). Moreover, the GI50 with M14 is > 100 µM (inactive); in the assay on A498 it was > 100 µM (inactive); with NCI-H226, > 100 µM (inactive); in the assay with HOP-62, > 100 µM (inactive); with HL-60, 75.2 µM (inactive); with SK-OV-3 it was > 100 µM (inactive). Besides, the GI50 in the assay with ACHN, in the assay on HCC 2998, in the assay on KM12 and in the assay with OVCAR-4 was > 100 µM (inactive) throughout.

Turning to `CN1C(=O)C2C3C=C4c5ccccc5N(c5ccccc5)C4(C2C1=O)[C@H]1C(=O)N(C)C(=O)[C@@H]31` (stereo partly specified), the GI50 in the assay on SNB-19, in the assay on KM-20L2, in the assay on SW-620, in the assay on UACC-257, in the assay with K562 and with NCI-H522 was > 100 µM (inactive) each time. The GI50 in the assay with CCRF-CEM, with M14, in the assay with A498, with NCI-H226, in the assay with HOP-62 and in the assay on HL-60 was > 100 µM (inactive) each time. Also, the GI50 with SK-OV-3, with ACHN, in the assay with HCC 2998, in the assay on KM12 and in the assay with OVCAR-4 was > 100 µM (inactive) each time.

In the case of `c1ccc2cc3[s+]snc3cc2c1`, the GI50 in the assay on SNB-19, with KM-20L2, in the assay with SW-620, in the assay with UACC-257, with K562 and in the assay on NCI-H522 was > 100 µM (inactive) each time. For the same compound, the GI50 in the assay on CCRF-CEM was 89.7 µM (inactive); with M14, > 100 µM (inactive); in the assay with A498, > 100 µM (inactive); with NCI-H226 it was > 100 µM (inactive); in the assay with HOP-62 it was > 100 µM (inactive); in the assay on HL-60, > 100 µM (inactive). Moreover, the GI50 in the assay on SK-OV-3, with ACHN, in the assay with HCC 2998, in the assay with KM12 and with OVCAR-4 was > 100 µM (inactive) in each case.

Take `Nc1ccn(CCOC(=O)c2ccccc2)c(=O)n1`: the GI50 in the assay with KM-20L2, in the assay with SW-620, in the assay on UACC-257, in the assay with K562, in the assay with NCI-H522 and with CCRF-CEM was > 100 µM (inactive) throughout. Besides, the GI50 in the assay with M14, in the assay on A498, in the assay on NCI-H226, in the assay with HOP-62, with HL-60 and in the assay on SK-OV-3 was > 100 µM (inactive) each time. For the same compound, the GI50 with ACHN, in the assay with KM12 and in the assay on OVCAR-4 was > 100 µM (inactive) throughout.

For `COC1OC(CO)C(O)C(NC(=O)N(C)N=O)C1O` (stereo unspecified), the GI50 in the assay on SNB-19, in the assay on KM-20L2, in the assay with SW-620, with K562, in the assay on NCI-H522 and in the assay on CCRF-CEM was > 100 µM (inactive) in each case. The GI50 in the assay on M14, in the assay with A498, with NCI-H226, in the assay on HL-60, with SK-OV-3 and with ACHN was > 100 µM (inactive) each time. Besides, the GI50 with HCC 2998, with KM12 and in the assay with OVCAR-4 was > 100 µM (inactive) throughout.

Consider `COC(=O)Cc1cc(=O)n2c3ccccc3n(C)c2c1C#N`, for which the GI50 in the assay on SNB-19, in the assay with KM-20L2, with SW-620, with UACC-257, with K562 and in the assay on M14 was > 100 µM (inactive) throughout. Moreover, the GI50 in the assay on A498, with NCI-H226, in the assay with HOP-62, with HL-60, in the assay with SK-OV-3 and in the assay on ACHN was > 100 µM (inactive) in each case. In addition, the GI50 in the assay on HCC 2998, with KM12 and in the assay with OVCAR-4 was > 100 µM (inactive) each time.

On to `CC(C)(C)c1ccnc(/N=C2\N/C(=N\c3cc(C(C)(C)C)ccn3)c3ccccc32)c1`, for which the GI50 in the assay on SNB-19 is 22.2 µM (inactive); in the assay with KM-20L2 it was 13.9 µM (inactive); in the assay with SW-620, 42.7 µM (inactive); with UACC-257 it was 23 µM (inactive); in the assay on K562, 41.3 µM (inactive); in the assay on NCI-H522, 21.6 µM (inactive). Further, the GI50 in the assay with CCRF-CEM is 59.4 µM (inactive); in the assay with M14, 32.5 µM (inactive); in the assay on A498, 19.9 µM (inactive); in the assay on NCI-H226, > 100 µM (inactive); in the assay with HOP-62, 31.6 µM (inactive); with HL-60 it was 36.3 µM (inactive). Further, the GI50 in the assay on SK-OV-3 was 26.5 µM (inactive); with ACHN, > 100 µM (inactive); in the assay with KM12 it was 41.8 µM (inactive); in the assay on OVCAR-4, > 100 µM (inactive).

`COc1ccc(C(=O)NCCN(C)C)c2nc3ccccc3nc12`: the GI50 in the assay with SNB-19 is 6.01 µM (inactive); in the assay on KM-20L2 it was 4.95 µM (inactive); in the assay on SW-620, 2.7 µM (inactive); in the assay with UACC-257, 3.56 µM (inactive); with K562, 2.05 µM (inactive); in the assay on NCI-H522, 11.7 µM (inactive). Besides, the GI50 was 5.37 µM (inactive) with M14; 4.21 µM (inactive) in the assay with A498; 3.48 µM (inactive) in the assay on NCI-H226; 3.3 µM (inactive) in the assay on HOP-62; 19.5 µM (inactive) in the assay on SK-OV-3; 2.79 µM (inactive) in the assay on ACHN. Further, the GI50 with HCC 2998 is 5.15 µM (inactive); with KM12 it was 4.82 µM (inactive); with OVCAR-4, 4.09 µM (inactive).

As for `CCOC(=O)N1C(c2ccccc2)C=CC(c2ccccc2)N1C(=O)OCC` (stereo unspecified), the GI50 in the assay with SNB-19, in the assay with KM-20L2, with SW-620, in the assay on UACC-257, with K562 and in the assay with CCRF-CEM was > 100 µM (inactive) each time. Also, the GI50 in the assay with A498, in the assay on HOP-62, in the assay with ACHN, with KM12 and in the assay on OVCAR-4 was > 100 µM (inactive) each time.

In the case of `Cn1nc(-c2ccccc2)c(C(=O)/C=C/c2ccc(Cl)cc2)c(N2CCOCC2)c1=O`, the GI50 with SNB-19 was 14.3 µM (inactive); with KM-20L2 it was 3.45 µM (inactive); with SW-620, 4.12 µM (inactive); in the assay with K562, 2.79 µM (inactive); in the assay on NCI-H522 it was 2.43 µM (inactive); in the assay on CCRF-CEM, 2.45 µM (inactive). The GI50 in the assay on M14 is 3.98 µM (inactive); in the assay on A498, 4.22 µM (inactive); in the assay with HOP-62 it was 10.5 µM (inactive); with HL-60 it was 1.85 µM (inactive); in the assay on SK-OV-3, 5.51 µM (inactive); in the assay with ACHN it was 4.42 µM (inactive).

`CN(C)CCNC(=O)c1cccc2nc3cc(Cl)ccc3nc12`: the GI50 in the assay with SNB-19 was 3.4 µM (inactive); with KM-20L2, 2.81 µM (inactive); in the assay with SW-620, 1.06 µM (active); in the assay with UACC-257 it was 2.82 µM (inactive); in the assay on K562, 1.18 µM (inactive); in the assay on NCI-H522, 2.92 µM (inactive). Further, the GI50 in the assay with M14 is 3 µM (inactive); in the assay on A498 it was 1.65 µM (inactive); with NCI-H226, 1.64 µM (inactive); in the assay with HOP-62 it was 2.14 µM (inactive); in the assay on HL-60, 3.32 µM (inactive); in the assay with SK-OV-3 it was 5.94 µM (inactive). Moreover, the GI50 in the assay with ACHN was 1.02 µM (active); in the assay with HCC 2998 it was 2.65 µM (inactive); with KM12, 2.51 µM (inactive); in the assay on OVCAR-4, 2.42 µM (inactive).
